Values of other authors in US8795652B1, “Methods and compositions to treat myocardial conditions” (Abbott Cardiovascular Systems Inc., priority 2003, dated 2014).

## FC(F)(F)C(F)(F)C(F)(F)C(F)(F)CCC(F)(F)C(F)(F)C(F)(F)C(F)(F)F [F-44E, 1,2-bis(perfluorobutyl)ethane]
other
  O2 solubility at 37° C.: 50 V %

## FC1(F)C(F)(F)C(F)(F)C2(F)C(F)(F)C(F)(F)C(F)(F)C(F)(F)C2(F)C1(F)F (stereo not shown) [FDC, Perfluorodecalin]
other
  O2 solubility at 37° C.: 45 V %

## CCCCC[C@H](O)/C=C/[C@H]1[C@H](O)CC(=O)[C@@H]1C/C=C\CCCC(=O)O [PGE2, prostaglandin E2]
Ductus arteriosus; four neonates, infused prior to and during surgery
  arterial oxygen saturation: immediate and persistent rise
Ductus arteriosus; in vivo
  side effects: No major side effects occurred, except for pyrexia in two infants
